Measured values taken from patent US8562947B2, “Oxidized avidin with high residency time in the treated tissues” (Sigma-Tau Industrie Farmaceutiche Riunite S.p.A., priority 2007, dated 2013).
“And” between values parts separate entries of the source, which are not always exact repeats. Equal values may be shown once. Values belong to the substance of their own block, whether it stands above or below them.

What was measured:
[1] = BiotinDOTA (ST2210) binding capacity by HABA assay; details: WTavidin value assumed as 100%
[2] = Isothermal Titration Calorimetry of avidin/ST2210 interaction; format: binding; details: for KA / N (stoichiometry): ITC with ST2210; for association constants (KA): ITC with ST2210, text
[3] = Long term tissue permanence of wild type and oxidized avidins; format: in vivo, Balb/c nu/nu mice; details: referred to the 1 hour level; treated hind limb
[4] = parameters: species or system Balb/c nu/nu mice; details: mouse, in vivo
Experimental: The animal model of intraoperative avidination for radionuclide treatment IART® was set up by performing a surgical cut in one hind limb of a mouse, infiltrating radiolabelled avidin in the surgical margins and surrounding tissues and measuring radioactivity in the treated limb at different time points after administration. In a parallel group of mice, the radioactive avidin was infiltrated to the limb without surgery.
The amount of radioactivity, after 1 and 24 hours from administration was similar in the surgically treated and not surgically treated animals. Therefore, further studies were performed by infiltrating avidin without surgery. […] Labelled avidin was separated from free iodine by chromatography on a PD-10 column (Amersham Biosciences, Uppsala, Sweden) and oxidized as previously described in the Example 1 without any prior HABA protection.
Mice were sacrificed 1, 24 or 48 hours after ^111In-ST2210 administration and the treated and controlateral limbs, kidney, liver and blood samples were collected and counted in a gamma-counter (Camberra Packard, Schwadorf, Austria).

[5] = Thermal stability and conformational changes by circular dichroism spectroscopy (melting curves); format: physicochemical; details: for thermal denaturation reversibility: heated without biotin; for p (slope of sigmoidal curve) / Tm: without biotin; for Tm: dichroic signal at 225 nm, 25-95° C.
Experimental: Thermal stability and conformational changes were determined by circular dichroism spectroscopy before and after oxidation, with and without 4 equivalents of biotin. Melting curves were recorded by following the decrease of dichroic signal at 225 nm in the temperature range 25-95° C. The point of inflection and slope (p) of sigmoidal curves were calculated by means of Boltzman fitting model of the scientific graphing and data analysis Origin® 7.0 software and represent the point of transition through the denatured condition.
For each specific compound, the thermal stability corresponds to the temperature which matches the point of inflection of the corresponding curve registered in the temperature range 25-95° C.

[6] = mouse, in vivo
[7] = format: in vivo, Balb/c nu/nu mice; details: for distribution of 111In-ST2210 in non target organs: mouse, in vivo
Experimental: After 48 hours from injection, the animals received intravenously (i.v.) 5 μg of ^111In-ST2210.
Groups of 5 animals were sacrificed at the indicated time points and radioactivity in the treated limb as well as in other non target organs measured by gamma counter (Camberra Packard, Schwadorf Austria).
One group of animals received a first intravenous dose of 5 μg of cold ST2210 24 hours prior to a second one of 5 μg ^111In-ST2210. The former occurred 24 hours after avidination. The animals were sacrificed 2 hours after i.v. injection of radiolabelled-ST2210 and radioactivity in the treated limb was measured by gamma counter as above.

[8] = Tissue localization in cryosections of avidinated muscle (immunofluorescence, haematoxylin/eosin); format: in vivo, Balb/c nude mice; details: 24 hrs from injection
Experimental: OXavidinHABA was evaluated for tissue localization in comparison to WTavidin in cryosections of avidinated tissues after intramuscular injection into one hind limb of Balb/c nude mice (Harlan, Udine Italy). The muscles were excised 24 hrs after treatment and serial cryosections were prepared from each sample. Each slide was stained with haematoxylin/eosin to evaluate the tissue morphology or incubated with a mouse anti avidin antibody (A5680, Sigma Aldrich, Italy) followed by anti mouse Alexa fluor 488 (Invitrogen, Milan Italy). Finally, slides were mounted with coverslips and observed under microscope.

[9] = parameters: species or system Balb/c mice; details: mouse, in vivo
Description: ^125I-OXavidinHABA was saturated in vitro with ST2210, purified from unbound ST2210 by ultrafiltration and intramuscularly injected into one hind limb of Balb/c mice. The same protocol was followed with regard to WTavidin.

[10] = tested on: tumoral lesions of the mammary gland of NeuT mice; test: Therapeutic efficacy of pre-targeted brachytherapy in NeuT transgenic mice (whole mount analysis of mammary gland); format: in vivo, Balb-NeuT mice; details: compared to vehicle or WTavidin-treated breast; 90Y-ST2210 800 μCi
Experimental: Two animals/group were sacrificed 3 hours after administration and both breasts IV and III excised and counted in a gamma counter as above. Non target organs were also collected weighted and counted. Data are expressed as the % ID/g of tissue. The effect of this pre-targeted brachytherapy on the tumoral lesions were evaluated by whole mount analysis of the mammary gland as described previously (De Giovanni C., et al., Cancer Research, 2004, 64, 4001).

[11] = Permanence in rabbit mammary tissue; format: in vivo, rabbits; details: for % ID/breast (+/− SD) at 24 h: rabbit mammary tissue; for amount found in the mammary tissue: rabbit, after 24 hours
Experimental: OXavidinHABA was evaluated for its permanence in the mammary tissue in comparison to WTavidin. […] The animals were sacrificed after 24 h from injection and tissue samples of the injected area of about 200 mg were collected and counted in a gamma counter as previously described. The data are the average (+/−SD) of 3 determinations.

[12] = Tissue permanence of wild type, pegylated or oxidized avidins; format: in vivo, C57Bl/6 mice; details: 24 hours after i.m. injection in hind limb
Experimental: Radioactivity in the treated limb was measured by gamma counter (Camberra Packard, Schwadorf Austria).
Chemically modified avidins were previously described by other groups with the intent of improving the avidin half-life in circulation (Caliceti P., et al., J. Control. Release, 2002, 83, 97; Salmaso S., et al., Int. J. Pharm., 2007, 340, 20). […] After 24 hours from injection, the animals were sacrificed and radioactivity in the treated limb was measured by gamma counter (Camberra Packard, Schwadorf Austria).

BiotinDOTA binding % ± SD [1]: 55.7 ± 2.2%
Substance: OXavidin 5 mM NaIO4: avidin oxidized with 5 mM NaIO4 without HABA

BiotinDOTA binding % ± SD [1]: 50.9% and 50.9 ± 2.4%
Substance: OXavidin 10 mM NaIO4: avidin oxidized with 10 mM NaIO4 without HABA

BiotinDOTA binding % ± SD [1]: 99.0 ± 0.2%
Substance: OXavidinHABA 1 mM NaIO4: avidin oxidized with 1 mM NaIO4 in presence of 1 mM HABA
KA [2]: 4.58e+06 ± 249000 M⁻¹ | N (stoichiometry) [2]: 2.5 ± 0.008

BiotinDOTA binding % ± SD [1]: 95.0 ± 1.7%
Substance: OXavidinHABA 5 mM NaIO4: avidin oxidized with 5 mM NaIO4 in presence of 1 mM HABA
KA [2]: 5.42e+06 ± 590000 M⁻¹ | N (stoichiometry) [2]: 1.9 ± 0.012

BiotinDOTA binding % ± SD [1]: 86.3% | BiotinDOTA binding % ± SD ([1]; listed as OXavidinHABA 10 mM NaIO4 + 1 mM HABA): 86.3 ± 1.6 %
Substance: OXavidinHABA 10 mM NaIO4: avidin oxidized with 10 mM NaIO4 in presence of 1 mM HABA
KA [2]: 3.34e+06 ± 212000 M⁻¹ | N (stoichiometry) [2]: 1.7 ± 0.008

BiotinDOTA binding % ± SD [1]: 73.0 ± 0.6%
Substance: OXavidinHABA 40 mM NaIO4 + 1 mM HABA: avidin oxidized with 40 mM NaIO4 in presence of 1 mM HABA

BiotinDOTA binding % ± SD [1]: 100^@ %
Substance: WTavidin: wild type avidin, glycoprotein of about 68 kDa present in egg white, high affinity for biotin [reference compound]
distribution of 111In-ST2210 in non target organs [7]: similar | tissue half life [3]: 2 h | haematoxylin/eosin staining of muscle [8]: no histological abnormalities | stoichiometry of interaction [2]: 3.0 molecules of ST2210 per molecule | KA [2]: 3.45e+06 ± 307000 M⁻¹ | N (stoichiometry) [2]: 3.0 ± 0.016 | association constants (KA) [2]: 3.45e+06 M⁻¹ | amount in the treated limb [9]: < 0.5 % ID/100 mg | distribution in the non target organs (blood, kidney, liver) [4]: higher distribution | % ID/breast (+/− SD) at 24 h [11]: 8.5 (1.13) % ID/breast | amount found in the mammary tissue [11]: 8.5 % ID | p (slope of sigmoidal curve) [5]: 14.7 | Tm [5]: 79.0 °C | Tm ([5]; listed as Avidin): 79.0 ± 0.1 °C | Tm ([5]; listed as avidin): 79.0 °C | p (slope of sigmoidal curve) ([5]; listed as Avidin): 14.7 ± 0.3 | p (slope of sigmoidal curve) ([5]; listed as avidin): 14.7

Second part, the substance before the results:

Substance: OXavidin 1 mM NaIO4: avidin oxidized with 1 mM NaIO4 without HABA
BiotinDOTA binding % ± SD [1]: 77.2 ± 0.9%

Substance: OXavidin 20 mM NaIO4: avidin oxidized with 20 mM NaIO4 without HABA
BiotinDOTA binding % ± SD [1]: 49.1% and 49.1 ± 2.1% | KA [2]: 645000 ± 56900 M⁻¹ | N (stoichiometry) [2]: 1.2 ± 0.012

Substance: OXavidin 40 mM NaIO4: avidin oxidized with 40 mM NaIO4 without HABA
BiotinDOTA binding % ± SD [1]: 44.5 ± 0.9%

Substance: OXavidin: avidin oxidized with sodium periodate without prior HABA protection; NaIO4 concentration not stated at these places
tissue half life [3]: about 2 weeks | stoichiometry of interaction [2]: 1.2 molecules of ST2210 per molecule | KA [2]: 645000 M⁻¹ | amount in the treated limb compared to native avidin [4]: more than double | distribution in the non target organs (blood, kidney, liver) [4]: lower distribution | thermal denaturation reversibility [5]: irreversible | p (slope of sigmoidal curve) [5]: 8.9 and 8.9 ± 0.1 | Tm [5]: 74.3 °C and 74.3 ± 0.1 °C

Substance: OXavidinHABA 20 mM NaIO4: avidin oxidized with 20 mM NaIO4 in presence of 1 mM HABA
BiotinDOTA binding % ± SD [1]: 81.4% | BiotinDOTA binding % ± SD ([1]; listed as OXavidinHABA 20 mM NaIO4 + 1 mM HABA): 81.4 ± 1.0 % | KA [2]: 2.5e+06 ± 132000 M⁻¹ | N (stoichiometry) [2]: 1.5 ± 0.007

Substance: OXavidinHABA: HABA-saturated avidin oxidized with sodium periodate; NaIO4 concentration not stated at these places
residence in the brain [6]: about 12.65±6.59 % ID/100 mg of tissue | specific captation of 111In-ST2210 in treated tissue compared with WTavidin ([7]; 2 hours from i.v. injection, 48 hours after avidination): much higher | captation of second dose of 111In-ST2210 in treated limb ([7]; after a first dose of cold ST2210 24 hours before): comparable to that obtained with the single dose | distribution of 111In-ST2210 in non target organs [7]: similar | tissue half life [3]: about 2 weeks | haematoxylin/eosin staining of muscle [8]: no histological abnormalities | stoichiometry of interaction [2]: 1.7 molecules of ST2210 per molecule | association constants (KA) [2]: 2.5e+06 M⁻¹ | amount in the treated limb [9]: 17 % ID/100 mg | effect on cancer lesions of the mammary gland [10]: significant reduction of cancer lesions | % ID/breast (+/− SD) at 24 h [11]: 65.8 (0.08) % ID/breast | amount found in the mammary tissue [11]: 65.8 % ID | tissue permanence compared to WTavidin [12]: increase of tissue permanence | thermal denaturation reversibility [5]: irreversible | p (slope of sigmoidal curve) [5]: 11.2 and 11.2 ± 0.4 | Tm [5]: 78.1 °C and 78.1 ± 0.3 °C

Substance: PEGavidin: PEG-conjugated avidin prepared according to Caliceti [reference compound]
tissue permanence compared to WTavidin [12]: did not affect the tissue permanence
